# Test results: patent US6969760B2, “Jak kinases and regulation of cytokine signal transduction” (St. Jude Children's Research Hospital, priority 1993, dated 2005)
# Several values for one entry are separate records, joined by “and”; a condition that tells them apart may be missing. Identical values can stand only once.
# How the values were obtained:
# [1] = tested on: EPO-induced cell proliferation; details: cited from earlier work
# Jak2 [2] = target: T1, Jak2 (Mus musculus, UniProt Q62120); test: In vitro kinase assay with Jak2 immunoprecipitated from cell lysates (32P-gamma-ATP, autoradiography); format: biochemical; details: genestein at 0.1 mM in the in vitro kinase assay
# T1 construct: endogenous in cells; host or cells: mammalian cells stimulated with EPO or IL-3
# T1 sequence (Q62120 whole entry): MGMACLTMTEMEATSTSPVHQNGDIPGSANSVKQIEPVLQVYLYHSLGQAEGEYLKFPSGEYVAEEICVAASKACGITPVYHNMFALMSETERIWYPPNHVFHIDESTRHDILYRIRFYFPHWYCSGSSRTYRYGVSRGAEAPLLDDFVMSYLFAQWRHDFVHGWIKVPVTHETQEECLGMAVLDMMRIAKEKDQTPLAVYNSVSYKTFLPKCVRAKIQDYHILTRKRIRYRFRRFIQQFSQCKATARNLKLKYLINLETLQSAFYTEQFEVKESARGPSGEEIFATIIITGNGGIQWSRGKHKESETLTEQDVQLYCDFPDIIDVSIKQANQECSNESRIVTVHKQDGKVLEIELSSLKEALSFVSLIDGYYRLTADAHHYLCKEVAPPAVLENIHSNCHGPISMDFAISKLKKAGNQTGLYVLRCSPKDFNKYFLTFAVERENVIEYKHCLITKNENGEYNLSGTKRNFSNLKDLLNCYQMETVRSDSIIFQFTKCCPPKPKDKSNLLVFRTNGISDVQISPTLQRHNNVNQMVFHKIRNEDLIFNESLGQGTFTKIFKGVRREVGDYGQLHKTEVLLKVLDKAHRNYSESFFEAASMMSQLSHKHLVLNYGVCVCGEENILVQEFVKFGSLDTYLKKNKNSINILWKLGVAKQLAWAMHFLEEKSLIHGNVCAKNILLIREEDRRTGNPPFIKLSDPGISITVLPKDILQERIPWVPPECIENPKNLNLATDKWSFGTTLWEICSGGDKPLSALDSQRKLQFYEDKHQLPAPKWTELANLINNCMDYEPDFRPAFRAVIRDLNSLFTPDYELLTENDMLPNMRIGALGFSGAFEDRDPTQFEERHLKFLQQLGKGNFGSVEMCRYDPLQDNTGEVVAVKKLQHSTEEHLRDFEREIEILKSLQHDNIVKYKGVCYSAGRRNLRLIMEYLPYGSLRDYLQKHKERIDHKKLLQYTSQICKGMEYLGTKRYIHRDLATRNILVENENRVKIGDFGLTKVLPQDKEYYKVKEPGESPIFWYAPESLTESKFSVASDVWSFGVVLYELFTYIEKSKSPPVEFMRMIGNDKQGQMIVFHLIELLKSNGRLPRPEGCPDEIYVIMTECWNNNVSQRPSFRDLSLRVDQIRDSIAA
# Protocol: In this assay, purified Jak2 is precipitated from cell lysates using Jak2-specific antisera bound to protein A-sepharose. The immunoprecipitated Jak2 is then washed with kinase buffer (50 mM NaCl, 5 mM MgCl2, 5 mM MnCl2, 0.1 mM Na3VO4, 10 mM HEPES pH 7.4) and subsequently incubated for 30 minutes at room temperature with an equal volume of kinase buffer containing 0.25 mCi/ml ^32P-gamma-ATP. After extensive washing, proteins are eluted with sample buffer for SDS-PAGE and separated on 7% gels. ^32P-containing proteins are then visualized by autoradiography.
# Thus, activation of the Jak2 catalytic activity is correlated with the biological activities of these cytokines.
# [3] = tested on: tyrosine kinase activity associated with the CNTF receptor complex (gp130, LIFRβ); test: In vitro tyrosine kinase activity associated with the purified CNTF receptor complex; format: biochemical; details: compared with CNTF-treated intact cells
# Protocol: Cell lines were passaged and maintained as previously described (Ip et al., Cell 69:1121-1132 (1992). COS cell transfections were carried out by a DEAE protocol (Davis et al., Science 260:1805-1808 (1993)). Plates of cells were starved in serum-free RPMI medium for 2-4 hours, then stimulated with 50 ng/ml of the indicated factor for 5 minutes. Cells were harvested and lysed as previously described (Stahl et al., J. Biol. Chem. 268:7628-7631 (1993)), except that 1% Brij 96 (Sigma) or 1% NP-40 (Boehringer) was used as indicated. Immunoprecipitation, electrophoresis, and anti-phosphotyrosine immunoblotting with monoclonal antibody 4G10 (Upstate Biotechnology) and detection via enhanced chemiluminescence (Amersham) was carried out as previously described (Id). For in vitro kinase assays, the washed beads were incubated for 15 min at room temperature in 20 mM Hepes (pH 7.2), 10 mM MnCl2, 30 mM sodium orthovanadate and 10 MCi of (g-^32P)ATP (NEN DUPONT). Electrophoresis sample buffer was added and the samples were boiled, subjected to SDS PAGE, and electroblotted to PVDF. The membrane was then incubated in 1 M NaOH at 65° C. for 60 min to destroy serine and threonine phosphate before autoradiography.
# Jak2 [4] = test: GH-dependent tyrosyl phosphorylation of Jak2 (αJak2 immunoprecipitation, αPY immunoblot) in 3T3-F442A fibroblasts; format: cell-based
# Protocol: Jak2 is a tyrosine kinase of the correct size (Mr of ˜130,000; see example 1) to be the GHR-associated kinase and was therefore tested for its ability to be phosphorylated in response to GH. Solubilized proteins from GH-treated 3T3-F442A fibroblasts were immunoprecipitated using antiserum to Jak2 (αJak2) and analyzed by anti-phosphotyrosine antibody (αPY) immunoblot. Cells were incubated with varying physiological concentrations of GH in ranging in 10-fold increments from 0.5 ng/ml to 500 ng/ml (the standard concentration used) for 0, 0.5, 5, 50, and 60 minutes.
# Cells were grown to confluence and deprived of serum overnight as described previously (Wang, X. et al., J. Biol. Chem. 268:3573-3579 (1993)). Cells were incubated for the indicated times with hormone or growth factor as indicated at 37° C. in 95% air, 5% CO2, rinsed with three changes of ice-cold 10 mM sodium phosphate (pH 7.4), 137 mM NaCl, 1 mM Na3VO4, and scraped in lysis buffer (50 mM Tris (pH 7.5), 0.1% Triton X-100, 137 mM NaCl, 2 mM EGTA, 1 mM Na3VO4, 1 mM phenylmethylsulfonyl fluoride, 10 μg/ml aprotinin, and 10 μg/ml leupeptin) on ice. Cell lysates were centrifuged at 12,000×g for 10 min, and the resulting supernatants were incubated on ice 90 min with the indicated antibody. […]
compound,measurement,setting,value
O=c1c(-c2ccc(O)cc2)coc2cc(O)cc(O)c12 [genestein],effect on ability of EPO to stimulate cell growth,[1],inhibit the ability of EPO to stimulate cell growth
same,reduction in the tyrosine kinase activity of Jak2,Jak2 [2],2 fold
CN[C@@H]1C[C@H]2O[C@@](C)([C@@H]1OC)n1c3ccccc3c3c4c(c5c6ccccc6n2c5c31)C(=O)NC4 [staurosporine],sensitivity of receptor-associated in vitro kinase activity to staurosporine,[3],same sensitivity to staurosporine as that observed upon addition of CNTF to intact cells
GH: Recombinant human GH (hGH) provided by Eli Lilly,earliest time at which GH-dependent tyrosyl phosphorylation of Jak2 was clearly evident,Jak2 [4],30 s
same,lowest GH concentration at which tyrosyl phosphorylation of Jak2 was clearly evident,Jak2 [4],5.0 ng/ml and 230 pM
